Results on 14 substances are retold here after article PMC10447463, “Data-mining unveils structure–property–activity correlation of viral infectivity enhancing self-assembling peptides” (Nature Communications, 2023).

A short description of series [1]: Aggregate analysis by widefield fluorescence microscopy. Conditions: for Number of Aggregates / Aggregate Number: ThT-stained aggregates > 10 µm2 in 1330 µm × 1330 µm, 1 mg/mL 1 d, diluted to 0.1 mg/mL with 50 µM ThT, 3D object counter ImageJ, triplicate. The class given is physicochemical. The protocol:
4 µL of 1 mg/mL peptide fibrils solution is added to a 20 µL, 50 µM ThT–solution in PBS. The mixture is incubated for 15 min at RT to allow binding of ThT dye with β–sheet rich structures. For reference PBS (4 µL) was added instead of peptide fibril solution. The samples were placed in black UV Star® 384 microliter well–plates (Greiner bio–one). Fluorescence spectra were recorded on an Infinite® M1000 PRO microplate reader (Tecan) at λem = 488 nm upon excitation at λex = 440 nm with 10 nm bandwidths and multiple reads per well (3×3). Measurements were repeated in triplicates and averaged with standard deviation. A peptide fibril was considered as ThT-active if the fluorescence intensity was at least twice as strong compared to the control (PBS containing 10% DMSO). Zeta-Potential. For the determination of the surface charge of aggregated peptides zeta-potential measurements were conducted with a Zetasizer Nano ZS, Malvern Instruments. Unless stated otherwise the peptides were dissolved from DMSO (10 mg/mL) in PBS (pH 7.4) to concentration of 1 mg/mL and incubated for 1d at RT. Just before the measurement the 60 µL of the peptides were further diluted in 600 µL KCl (aq, 1 mM) in a 1 mL disposable folded capillary cells (DTS–1060, Zetasizer Nano series, Malvern). The zeta potential of the peptides was derived from the electrophoretic mobility based on the Smoluchowski formula. All measurements were averaged over two individually performed experiments and conducted in triplicates for each sample. Aggregate analysis. […] Furthermore, fluorescence microscopy was conducted by staining 1 µL preformed fibrils (1 mg/mL) with 9 µL ThT (50 µM). Brightfield microscopy was performed simultaneously to evaluate aggregation also for non ThT-active fibrils. The measurements were performed on a Leica DMi8 microscope with 10x air objective and equipped with a Leica MC170 HD camera with a filter setting λem = 527/30 nm upon excitation at λex = 480/40 nm) and processed with the Leica LASX software. To quantify size and number of microscopic aggregation of particles > 10 µm^2 at least 3 independently measured images were analyzed via the 3D object counter analysis tool of ImageJ, v 1.53f51. Sum–frequency generation. The SFG experiments were carried out with a femtosecond Ti: Sapphire amplified laser system (Spitfire Ace, Spectra–Physics, 800 nm, 40 fs, 1 kHz) with 5 W output power. We used 2 W to pump an optical parametric amplifier (TOPAS, light conversion) with a non–collinear difference frequency generation stage to generate broadband IR pulses. Another 1 W of the laser output passed through an etalon to generate narrowband visible pulses (10 cm^-1). The incident angles of the visible and IR beams were 36° and 41° with respect to the surface normal, respectively. The visible (13 µJ) and IR (5 µJ) pulses were overlapped spatially and temporally at the sample position. Subsequently, the generated SFG pulse was guided into a spectrograph (Acton SP 300i, Princeton Instruments), and detected with an EMCCD (Newton, Andor Technology). To avoid IR absorption of water vapor, we purged N2 for the measurement. All spectra were collected in the ssp (denoting s-, s- and p-polarized SFG, visible and IR, respectively) polarization combination. The spectra were normalized to the non–resonant signal taken from z–cut quartz after subtracting a background spectrum.
Table S8 Summary of aggregate analysis from widefield microscopy measurements (Figure S32). The Number of aggregated peptides, the median size area, average size area
and the cumulative total size area of all particles (> 10 µm2) in an area of 1330 µm × 1330 µm was determined via automated 3D object counting (ImageJ) in triplicate
measurements (Std. Dev.).
Aggregate Std. Dev. Std. Dev. Std. Dev. Std. Dev.
Sequence Abs. Inf. / Std. Dev. / Count Rate / Std. Dev. Number Aggregate Median Area Median Area Average Area Average Area Total Area/ Total Area/ […]

The conditions of series [2]: previously reported peptides only; ref sieste 2021 or Schilling2019; cited from earlier work. The source says:
Supplement 41467_2023_40663_MOESM7_ESM.zip/FigS17.csv, table | column: Conversion Rate / % ( from sieste 2021 or Schilling2019)

For another series, the system named is TZM-bl cells. Type of series: cell-based. The following applies: CellTiter-Glo, mean of n = 3 replicates. The protocol:
The cell viability after addition of peptides to TZM–bl cells was studied via the CellTiter–Glo assay. To this end, 10,000 cells were seeded and on the next day serial diluted peptides were added. After 3 days the supernatant was removed and 100 µL CellTiter–Glo Reagent 1:1 diluted in PBS was added. After 10 min 50 µL was transferred to white microplate and luminescence was recorded by Orion microplate luminometer.
2. Cell Viability of Representatively Selected Peptides
Figure S 2 Cell Viability normalized to 100% metabolic activity as determined by CellTiterGlo Assay of 57 representatively selected peptides from the library. The selection represents infectivity enhancing and not […]
concentration. Error bars indicate standard deviation from triplicate measurements. Source data for Figure S2 […]
Figure S3 Cell Viability normalized to 100% metabolic activity determined by CellTiterGlo Assay of 20 peptides reported in literature. 33,34,43–48,35–42 Cell viability (> 80%) is maintained for all peptides at 1.3 µM concentration regardless of the preparation method, which is A PNF formation method by dilution of 10 mg/mL peptide stock in DMSO in PBS to 1 mg/mL or B preparation according to literature reported protocol (SI Section 8). Error bars indicate standard deviation from triplicate measurements. Source data for Figure S3 is provided.
(ATP-based viability assays read luminescence as a measure of living cells.)

Values joined by “and” are separate entries in the source; they are usually repeats but may differ in a detail not shown here. Equal values may be shown once.

For the substance CKAKAQANMWQ, the “Number of Aggregates / Aggregate Number” value in series [1] is recorded as 6.

For the substance CKFKFQFW, in series [1], the “Number of Aggregates / Aggregate Number” value came to 517.

For CKFKQFFNM, the “Number of Aggregates / Aggregate Number” value in series [1] was 704 ± 90 and 704.

As for CKIKIQI, the “Number of Aggregates / Aggregate Number” value in series [1] is 317 ± 36 and 317.

Regarding CKIKQII, in series [1], the “Number of Aggregates / Aggregate Number” value was 76 ± 12 and 76.

As to CKIKQIINMWQ, in series [1], the “Number of Aggregates / Aggregate Number” value stood at 195.

CQFQFQF: the “Number of Aggregates / Aggregate Number” value in series [1] is 46.

On to CSISIQI, for which, in series [1], the “Number of Aggregates / Aggregate Number” value turned out to be 123.

Regarding HHHHKIKIKIKIWWWW, the “Number of Aggregates / Aggregate Number” value in series [1] is reported as 446.

HHHHKIKIKIKIWWWW [TM4]: the “Conversion Rate / % ( from sieste 2021 or Schilling2019)” value in series [2] is reported as 96%. The “viability 0.26 µM” value in the series on TZM-bl cells (peptide 0.26 µM) is given as 89.63. For the same substance, in the series with TZM-bl cells (peptide 1.3 µM), the “viability 1.3 µM” value is on record as 83.12. In addition, the “viability 6.5 µM” value in the series with TZM-bl cells (peptide 6.5 µM) is 68.76. In series [1] (Fig S8 panels A, C), the “Avg Area in 3 *(1330 µm *1330 µm)” value was determined as 50.02, the “Log 10 Number of aggregates in 3 * (1330 µm *1330 µm)” value stood at 2.649, the “Median Area in 3 * (1330 µm *1330 µm)” value stood at 24.51 and the “log Avg Area in 3 * ( (1330 µm *1330 µm))” value came out at 1.699. Also, in series [1] (Fig S8 panels A, C), the “log Median Area in 3 * ( (1330 µm *1330 µm))” value came to 1.389 and the “log Total Area of all particles in 3 * (1330 µm *1330 µm)” value amounted to 4.348. Besides, in series [1] (Fig S8 panels A, C, 3 fields of 1330 µm x 1330 µm), the “Number of aggregates in 3 * (1330 µm *1330 µm)” value came to 445.7. Besides, the “Avg Area in 3 *(1330 µm *1330 µm)” value in series [1] (Fig S8 panels B, D, average aggregate area, 3 fields of 1330 µm x 1330 µm) is 50.02. Further, in series [1] (Fig S8 panels B, D, median aggregate area, 3 fields of 1330 µm x 1330 µm), the “Median Area in 3 * (1330 µm *1330 µm)” value came to 24.51. Also, in series [1] (Fig S8 panels B, D, total area of all particles, 3 fields of 1330 µm x 1330 µm), the “Total Area of all particles in 3 * (1330 µm *1330 µm)” value turned out to be 22293.86733. In addition, the “Number of aggregates in 3 * (1330 µm *1330 µm)” value in series [1] (Fig S8 panels B, D, widefield fluorescence microscopy, 3 fields of 1330 µm x 1330 µm) was 445.7.

Turning to HHHHKIKIKIKIYYYY, the “Number of Aggregates / Aggregate Number” value in series [1] turned out to be 147.

In the case of HHHHKIKIQINMYYYY, the “Number of Aggregates / Aggregate Number” value in series [1] is recorded as 234.

With KIKIQIC, the “Number of Aggregates / Aggregate Number” value in series [1] amounted to 82.

For the substance RGDSGGGGGGKIKIQIC, the “Number of Aggregates / Aggregate Number” value in series [1] came out at 72.
